Some test systems named below: Candida albicans SC5314; Candida krusei IFM 56881; Escherichia coli ML-35p; Bacillus subtilis; Escherichia coli W160-37; Micrococcus luteus MT166; Escherichia coli; Listeria innocua; Micrococcus luteus; Cupriavidus necator H16; Escherichia coli JM109.
Holding throughout (test): ≥ marks a high value that may be exact or a test limit, other limits are often not marked, values filed in µg/mL are converted to µM
In assay [1] the test system is Escherichia coli ATCC 25922.
Assay [2] relates to Escherichia coli ATCC 54127.
The subject of assay [3] is Pseudomonas aeruginosa ATCC 27853.
Assay [4] has as its system Pseudomonas aeruginosa CIP A22.
In assay [5] the test system is Staphylococcus aureus ATCC 25923.
For assay [6], the system named is Bacillus subtilis VKM B-886.
Assay [7] has as its system Candida parapsilosis ATCC 22019.
Assay [8] has as its system Cryptococcus neoformans var. grubii H99.
In assay [9] the test system is Klebsiella pneumoniae CI 287.
Assay [10] deals with Micrococcus luteus VKM B-1314.
In assay [11] the test system is Pseudomonas aeruginosa PAO1.
Assay [12] concerns Staphylococcus aureus 209P.
Assay [13] concerns Staphylococcus aureus ATCC 29213.
In assay [14] the test system is Pseudomonas putida NCIM 2102.
For assay [15], the system named is Saccharomyces cerevisiae ATCC 8530.
Assay [16] deals with Staphylococcus aureus ATCC 8530.
Assay [17] deals with Candida albicans ATCC 90028.
Assay [18] deals with Pseudomonas aeruginosa ATCC 9027.
The subject of assay [19] is Salmonella enterica subsp. enterica serovar Enteritidis.
In assay [20] the test system is Staphylococcus aureus USA 100.
In assay [21] the test system is Staphylococcus aureus USA 300.
Assay [22] relates to Escherichia coli BL21(DE3).
Assay [23] deals with Pseudomonas putida GPp104.
Assay [24] deals with Enterococcus faecalis ATCC 29212.
Assay [25] deals with Staphylococcus epidermidis PIA 8400.

≈ marks a conversion by molar mass, not a printed value. Where “and” joins values, the source holds several entries; their conditions need not be identical. Identical values can stand only once.

For `CC[C@H](C)[C@H](NC(=O)CNC(=O)[C@H](CCCCN)NC(=O)[C@H](CC(C)C)NC(=O)[C@H](CCSC)NC(=O)[C@H](CC(N)=O)NC(=O)[C@H](CCCCN)NC(=O)[C@H](Cc1c[nH]c2ccccc12)NC(=O)[C@H](CC(C)C)NC(=O)[C@H](C)N)C(=O)NCC(=O)N[C@@H](CCCCN)C(=O)N[C@@H](CC(C)C)C(=O)N[C@@H](C)C(=O)NCC(=O)N[C@@H](CCC(N)=O)C(=O)N[C@@H](C)C(=O)N[C@@H](C)C(=O)N[C@@H](CC(C)C)C(=O)NCC(=O)N[C@@H](C)C(=O)N[C@H](C(=O)N[C@@H](CCCCN)C(=O)N[C@H](C(=O)N[C@@H](CC(C)C)C(=O)N[C@H](C(=O)NCC(=O)N[C@@H](C)C(=O)O)C(C)C)[C@@H](C)O)C(C)C` [ALWKNMLKGIGKLAGQAALGAVKTLVGA], the MIC – broadly, the smallest concentration in the dilution series that meets the test's criterion for growth inhibition – is 2.6 µM (≈ 7.23 µg/mL) in assay [1]; 2.3 µM (≈ 6.39 µg/mL) in assay [2]; 5 µM (≈ 13.9 µg/mL) in assay [3]; 2.3 µM (≈ 6.39 µg/mL) in assay [4]; 1.3 µM (≈ 3.61 µg/mL) in [5].

On to `CC[C@H](C)[C@@H]1NC(=O)CNC(=O)[C@H](CCCN=C(N)N)NC(=O)[C@H](Cc2ccc(O)cc2)NC(=O)[C@@H]2CSSC[C@H](NC1=O)C(=O)N[C@@H](Cc1ccc(O)cc1)C(=O)N[C@@H](CCCN=C(N)N)C(=O)N[C@@H](CCCCN)C(=O)N[C@H](C(=O)N[C@@H](CCCN=C(N)N)C(=O)O)CSSC[C@H](NC(=O)[C@H](Cc1c[nH]c3ccccc13)NC(=O)[C@@H](N)CCCCN)C(=O)N[C@@H](Cc1ccccc1)C(=O)N[C@@H](CCCN=C(N)N)C(=O)N[C@@H](C(C)C)C(=O)N2` [KWCFRVCYRGICYRKCR], for which the MIC in [6] was 1 µM (≈ 2.24 µg/mL); against Candida albicans SC5314, 14.3 µM (≈ 31.9 µg/mL); in the assay with Candida krusei IFM 56881, 28.6 µM (≈ 63.9 µg/mL); in assay [7], 7.14 µM (≈ 16 µg/mL); in assay [8] it was 1.79 µM (≈ 4 µg/mL); against Escherichia coli ML-35p it was 0.062 µM (≈ 0.139 µg/mL). Moreover, the minimum inhibitory concentration (MIC) is 0.5 µM (≈ 1.12 µg/mL) in assay [9]; 2 µM (≈ 4.47 µg/mL) in [10]; 0.5 µM (≈ 1.12 µg/mL) in assay [11]; 0.5 µM (≈ 1.12 µg/mL) in assay [12]; 16 µM (≈ 35.8 µg/mL) in [13].

Take `CC[C@H](C)[C@@H]1NC(=O)[C@@H]2CCCN2C(=O)[C@H](CC(C)C)NC(=O)[C@@H]2CCCN2C(=O)[C@H]([C@@H](C)CC)NC(=O)[C@H](C)NC(=O)[C@H](Cc2ccc(O)cc2)NC(=O)[C@@H](NC(=O)[C@@H](NC(=O)[C@@H](N)CCCN=C(N)N)C(C)C)CSSC[C@@H](C(=O)N[C@@H](Cc2ccc(O)cc2)C(N)=O)NC1=O` [RVCYAIPLPICY]: the minimum inhibitory concentration (MIC) is 21.3 µM (≈ 29.9 µg/mL) with Bacillus subtilis; 28.4 µM (≈ 39.9 µg/mL) in the assay with Escherichia coli W160-37; 21.3 µM (≈ 29.9 µg/mL) in the assay with Micrococcus luteus MT166; 28.4 µM (≈ 39.9 µg/mL) in [14]; at least 56.7 µM in assay [15]; 21.3 µM (≈ 29.9 µg/mL) in assay [16].

As for `NC(N)=NCCC[C@H](N)C(=O)N[C@@H](Cc1ccc(O)cc1)C(=O)N[C@@H](Cc1cnc[nH]1)C(=O)O` [RYH], the MIC in [17] was at least 100 µM; against Escherichia coli it was 4 µM (≈ 1.9 µg/mL); with Listeria innocua, 1 µM (≈ 0.475 µg/mL); in the assay on Micrococcus luteus, 4 µM (≈ 1.9 µg/mL); in [18] it was above 100 µM; in assay [19], 1 µM (≈ 0.475 µg/mL). For the same molecule, the MIC in assay [20] and in [21] was at least 100 µM in each case.

Consider `CC[C@H](C)[C@H](NC(=O)[C@H](Cc1ccc(O)cc1)NC(=O)[C@@H](NC(=O)[C@@H]1CCCN1C(=O)[C@H](CCCN=C(N)N)NC(=O)[C@H](CCCN=C(N)N)NC(=O)[C@@H](NC(=O)[C@@H](N)C(C)C)C(C)C)C(C)C)C(=O)N1CCC[C@H]1C(=O)N[C@@H](CCC(N)=O)C(=O)N1CCC[C@H]1C(=O)N[C@@H](CCCN=C(N)N)C(=O)N1CCC[C@H]1C(=O)N1CCC[C@H]1C(=O)N[C@@H](Cc1cnc[nH]1)C(=O)N1CCC[C@H]1C(=O)N[C@@H](CCCN=C(N)N)C(=O)N[C@@H](CC(C)C)C(=O)O` [VVRRPVYIPQPRPPHPRL], for which the MIC was at least 50 µM in the assay on Cupriavidus necator H16, 1.25 µM (≈ 2.72 µg/mL) in assay [22], 12.5 µM (≈ 27.2 µg/mL) in the assay with Escherichia coli JM109 and 25 µM (≈ 54.4 µg/mL) in assay [23].

Regarding `CC(C)C[C@H](NC(=O)[C@H](CCCN=C(N)N)NC(=O)[C@@H](N)Cc1ccc(O)cc1)C(=O)N[C@@H](CCCN=C(N)N)C(=O)N[C@H](C(=O)N[C@@H](CCCCN)C(=O)N[C@@H](Cc1c[nH]c2ccccc12)C(=O)N[C@@H](CCCCN)C(=O)N[C@@H](Cc1c[nH]c2ccccc12)C(N)=O)C(C)C` [YRLRVKWKW], the MIC in assay [24] is 37.5 µM and 74.9 µM; in assay [1], 9.74 µM (≈ 13 µg/mL); in assay [3] it was 18.7 µM and 9.74 µM; in assay [13], 9.74 µM (≈ 13 µg/mL); in [25], 4.5 µM and 9.74 µM.

The values above are taken from DBAASP.
